Data published in patent US8853424B2 (Japan Science and Technology Agency, priority 2008, dated 2014).

Experiments:
transglutaminase (TGase) = assay: Measurement of TG (TGase inhibitory activity, monodansyl cadaverine / N,N-dimethylcasein fluorescence, FDSS 3000); type: biochemical
Procedure, shortened: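 Compound (1 μL of 10 mM stock) added to 0.1 mL reaction: 100 mM HEPES-NaOH pH 7.5, 1 mM CaCl2, 20 μM monodansyl cadaverine, 0.05 mg/mL N,N-dimethylcasein, 5 μg/mL TGase. Rate of fluorescence change at 340 nm measured; DMSO control set to 100; TG50 is the concentration halving activity.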

[1] = tested on: Truncated N-terminal huntington 150 Q-EGFP-Neuron 2a cells; assay: Measurement of x-Fold (polyglutamine aggregation inhibitory activity); type: cell-based
Experimental: In the present invention, the polyglutamine aggregation inhibitory activity (x-Fold) can be measured, for example, by the method described in the Example.
The number of the aggregated cells, and the total number of cells were counted by Array Scan V T1 (manufactured by Cellomics, Pittuburg, USA), and the ratio of the aggregated cells to the total number of cells was determined (x-Fold). […]

[2] = TGase activity with compound (10 mM, 1 μL in 0.1 ml enzyme reaction solution), DMSO control taken as 100
[3] = TGase inhibitory activity measurement, unit not given
[4] = polyglutamine aggregation, Truncated N-terminal huntington 150 Q-EGFP-Neuron 2a cells
[5] = ratio of aggregated cells to total number of cells, compound 20 μM, 20 hr, almost 1 without compound, smaller = stronger inhibition
[6] = polyglutamine aggregation inhibitory activity, Table 1

Structure (SMILES) | TGase activity remaining (% of DMSO control = 100) (transglutaminase (TGase); [2]) | TGase activity remaining (% of DMSO control = 100) (transglutaminase (TGase); [3]) | TGase activity remaining (% of DMSO control = 100) (transglutaminase (TGase); TGase inhibitory activity value, Table 1) | x-Fold [1, 4] | x-Fold [1, 5] | x-Fold [1, 6]
COc1ccc(B(OCCN(C)C)c2ccc(COCc3ccc(B(OCCN(C)C)c4ccc(OC)cc4)cc3)cc2)cc1 [Example 414, bis(4,4′-(p-methoxyphenyl-N,N-dimethylaminoethoxyboryl)benzyl)ether] | 128 | 128 |  | 0.90 | 0.90 | 
COc1ccc(B(OC(=O)C(N)CCN)c2ccc(COCc3ccc(B(OC(=O)C(N)CCN)c4ccc(OC)cc4)cc3)cc2)cc1 (centres unmarked) [Example 415, bis(4,4′-(p-methoxyphenyl-2,4-diaminobutyric acid boryl)benzyl)ether] | 130 | 130 |  | 0.90 | 0.90 | 
NCCOB(c1ccc(COCc2ccc(B(OCCN)c3ccc(F)c(F)c3)cc2)cc1)c1ccc(F)c(F)c1 [Example 416, bis(4,4′-(3,4-difluorophenyl-aminoethoxyboryl)benzyl)ether] | 114 | 114 |  | 0.92 | 0.92 | 
CNCCOB(c1ccc(COCc2ccc(B(OCCNC)c3ccc(F)c(F)c3)cc2)cc1)c1ccc(F)c(F)c1 [Example 417, bis(4,4′-(3,4-difluorophenyl-N-methylaminoethoxyboryl)benzyl)ether] | 91 | 91 |  | 1.01 | 1.01 | 
CN(C)CCOB(c1ccc(COCc2ccc(B(OCCN(C)C)c3ccc(F)c(F)c3)cc2)cc1)c1ccc(F)c(F)c1 [Example 418, bis(4,4′-(3,4-difluorophenyl-N,N-dimethylaminoethoxyboryl)benzyl)ether] | 45 | 45 |  | 1.02 | 1.02 | 
NCCNCCOB(c1ccc(COCc2ccc(B(OCCNCCN)c3ccc(F)c(F)c3)cc2)cc1)c1ccc(F)c(F)c1 [Example 419, bis(4,4′-(3,4-difluorophenyl-N-aminoethylaminoethoxyboryl)benzyl)ether] | 140 | 140 | 108 | 0.90 | 0.90 | 1.02
COc1ccc(C(OB(c2ccccc2)c2ccc(COc3ccc(B(OC(c4ccc(OC)cc4)c4ccccn4)c4ccccc4)cc3)cc2)c2ccccn2)cc1 (centres unmarked) [Example 430, 4-(phenyl-p-methoxyphenyl-2-pyridylmethoxyboryl)-phenyl 4′-(phenyl-p-methoxyphenyl-2-pyridylmethoxyboryl)benzylether] | 106 | 106 |  | 1.03 | 1.03 | 
c1ccc(B(OC2CCCNC2)c2ccc(Oc3ccc(B(OC4CCCNC4)c4ccccc4)cc3)cc2)cc1 (centres unmarked) [Example 431, bis(4,4′-(phenyl-3-piperidyloxyboryl)phenyl)ether] | 118 |  |  |  | 1.02 | 0.57
NCC(N)C(=O)OB(c1ccccc1)c1ccc(Oc2ccc(B(OC(=O)C(N)CN)c3ccccc3)cc2)cc1 (centres unmarked) [Example 436, bis(4,4′-(phenyl-2,3-diaminopropionic acid boryl)phenyl)ether] | 104 | 104 |  | 0.85 | 0.85 | 0.73
NCCCCC(N)C(=O)OB(c1ccccc1)c1ccc(Oc2ccc(B(OC(=O)C(N)CCCCN)c3ccccc3)cc2)cc1 (centres unmarked) [Example 437, bis(4,4′-(phenyl-lysineboryl)phenyl)ether] | 119 | 119 |  | 0.85 | 0.85 | 
OB(c1ccc(Oc2ccc(B(O)c3cccc4ccccc34)cc2)cc1)c1cccc2ccccc12 [Example 439, bis(4,4′-(naphthylhydroxyboryl)phenyl)ether] | 33 | 33 |  | 0.54 | 0.54 | 

More lines, main results first:

TGase activity remaining (% of DMSO control = 100) (transglutaminase (TGase); [2]) | TGase activity remaining (% of DMSO control = 100) (transglutaminase (TGase); [3]) | TGase activity remaining (% of DMSO control = 100) (transglutaminase (TGase); TGase inhibitory activity value, Table 1) | Structure (SMILES) | x-Fold [1, 4] | x-Fold [1, 5] | x-Fold [1, 6]
63 | 63 |  | Cc1ccc(B(O)c2ccc(Oc3ccc(B(O)c4ccc(C)cc4)cc3)cc2)cc1 [Example 440, bis(4,4′-(tolylhydroxyboryl)phenyl)ether] | 0.69 | 0.69 | 
−1 | −1 |  | NCCOB(c1ccc(Oc2ccc(B(OCCN)c3cccc4ccccc34)cc2)cc1)c1cccc2ccccc12 [Example 441, bis(4,4′-(naphthyl-aminoethoxyboryl)phenyl)ether] | 0.58 | 0.58 | 
102 | 102 |  | CN(C)CCOB(c1ccc(Oc2ccc(B(OCCN(C)C)c3cccc4ccccc34)cc2)cc1)c1cccc2ccccc12 [Example 442, bis(4,4′-(naphthyldimethylaminoethoxyboryl)phenyl)ether] | 0.58 | 0.58 | 0.92
108 | 108 |  | NCCC(N)C(=O)OB(c1ccc(Oc2ccc(B(OC(=O)C(N)CCN)c3cccc4ccccc34)cc2)cc1)c1cccc2ccccc12 (centres unmarked) [Example 445, bis(4,4′-(naphthyl 2,4-diaminopropionic acid boryl)phenyl)ether] | 0.49 | 0.49 | 
73 | 73 |  | Cc1ccc(B(OCCN(C)C)c2ccc(Oc3ccc(B(OCCN(C)C)c4ccc(C)cc4)cc3)cc2)cc1 [Example 446, bis(4,4′-(tolyldimethylaminoethoxyboryl)phenyl)ether] | 0.85 | 0.85 | 
97 | 97 |  | Cc1ccc(B(OCCN2CCCCC2)c2ccc(Oc3ccc(B(OCCN4CCCCC4)c4ccc(C)cc4)cc3)cc2)cc1 [Example 447, bis(4,4′-(tolylpiperadylethoxyboryl)phenyl)ether] | 0.49 | 0.49 | 
92 | 92 |  | Cc1ccc(B(OC(=O)C(N)CC(N)=O)c2ccc(COCc3ccc(B(OC(=O)C(N)CC(N)=O)c4ccc(C)cc4)cc3)cc2)cc1 (centres unmarked) [Example 449, bis(4,4′-(tolylasparagineboryl)benzyl)ether] | 0.89 | 0.89 | 
53 | 53 |  | Cc1ccc(B(OC(=O)C(N)CCCCN)c2ccc(Oc3ccc(B(OC(=O)C(N)CCCCN)c4ccc(C)cc4)cc3)cc2)cc1 (centres unmarked) [Example 450, bis(4,4′-(tolyllysineboryl)phenyl)ether] | 0.49 | 0.49 | 
113 | 113 |  | NCCC(N)C(=O)OB(c1ccccc1)c1ccc(COCc2ccc(B(OC(=O)C(N)CCN)c3ccccc3)cc2)cc1 (centres unmarked) [Example 453, bis(4,4′-(phenyl-2,4-diaminobutyrateboryl)benzyl)ether] | 1.04 | 1.04 | 
